Common to all, as to format: cell-based, human
One test deals with MKL-1. The test is described as follows: Cell Titer Glo dose-response study. From the text:
(§1) Seven Merkel cell carcinoma cell lines: MKL-1, MKL-2, MS-1, UISO, MCC13, MCC26 and WaGa (kind gift of Jurgen Becker (Houben et al., Merkel cell polyomavirus-infected Merkel cell carcinoma cells require expression of viral T antigens. J Virol 84, 7064 (July, 2010); Ronan et al., Merkel cell carcinoma: in vitro and in vivo characteristics of a new cell line. J Am Acad Dermatol 29, 715 (November, 1993); Rosen et al., Establishment and characterization of a neuroendocrine skin carcinoma cell line. Lab Invest 56, 302 (March, 1987)); NCI-H69 small cell lung cancer cell line (ATCC); 293 human embryonic kidney cells (ATCC); U2OS osteosarcoma cell line (kind gift of Ole Gjoerup); BJhTERT immortalized foreskin fibroblast cell line (kind gift of Ole Gjoerup); and BJ primary foreskin fibroblasts (ATCC) were used to screen and evaluate the small molecules examined in this study (Houben et al., J Virol 84, 7064 (July, 2010); Ronan et al., J Am Acad Dermatol 29, 715 (November, 1993); Rosen et al., Lab Invest 56, 302 (March, 1987)). The Merkel cell lines and NCI-H69 were grown in RPMI 1640 supplemented with 10% fetal calf serum, penicillin and streptomycin at 37° C. in humidified air containing 5% CO2. The remaining cell lines were grown in DMEM supplemented with 10% fetal calf serum.
(§2) For EC50 measurements, dose-response curves were established for 17 drugs obtained individually in bulk stocks. Iodoacetamide (I1149), sanguarine chloride (S5890), NSC95397 (N1786), chelerythrine chloride (C2932), calmidazolium chloride (C3930), tetraethylthiuram disulfide (T1132), bay 11-7085 (B5681), quinacrine dihydro chloride (Q3251), ellipticine (E3380), amsacrine hydrochloride (A9809) and nutlin-3 (N6287) were purchased from Sigma Aldrich, USA.
(§3) Compounds that met the selection criteria <10% cell survival were purchased or obtained in bulk from NCI/NIH Developmental Therapeutics Program. Serial drug dilutions from 10^−4 M to 10^−9 M were used on MCC and non-MCC cell lines. Cells were seeded into 384-well plates at 6000 cells in 50 μl of medium per well. After 24 hours, 25 μl of 3× drugs were added at increasing concentration to each well. Cell viability was then measured using Cell Titer Glo (Promega) kit following manufacturer's instructions as described previously. Each drug concentration was tested in triplicate for each cell line and experiments were repeated twice. EC50 doses for the drugs were calculated using a four parameter logistic equation (GraphPad Prism).

The subject of another test is MKL-2. The test is described as follows: Cell Titer Glo dose-response study. To be noted: read-out: EC50 concentrations for MCC cell lines, MKL-2.
Text: as §1, §2, §3
Background: In ATP-based viability assays light output follows the ATP content of the culture.

A further test deals with MS-1. The test is described as follows: Cell Titer Glo dose-response study.
Text: as §1, §2, §3

The test system of another test is UISO. Nature of the test: Cell Titer Glo dose-response study. The following applies: read-out: EC50 concentrations for MCC cell lines, UISO.
Text: as §1, §2, §3

A further test deals with WaGa. The test is described as follows: Cell Titer Glo dose-response study. The following applies: read-out: EC50 concentrations for MCC cell lines, WaGa.
Text: as §1, §2, §3

For a further test, the system named is MKL-1 cells. The test is described as follows: MKL-1 cytotoxicity screen (Cell Titer Glo). The following applies: screened at 10^-5 M; 48 hours; cut-off <10% cell survival.
The mark [1] stands for this setting: Homo sapiens, MKL-1 (MCV-positive), Cell Titer Glo, read-out: EC50 concentrations for MCC cell lines, MKL-1.
The mark [2] stands for this setting: Homo sapiens, MKL-2 (MCV-positive), Cell Titer Glo.
The mark [3] stands for this setting: Homo sapiens, MS-1 (MCV-positive), Cell Titer Glo, read-out: EC50 concentrations for MCC cell lines, MS-1.
[4] abbreviates: Homo sapiens, UISO (MCV-negative), Cell Titer Glo.
Where [5] appears, read: Homo sapiens, WaGa (MCV-positive), Cell Titer Glo.
The mark [6] stands for this setting: MKL-1 (MCV-positive), Cell Titer Glo, read-out: EC50 concentrations for MCC cell lines, MKL-1.
[7] abbreviates: MKL-2 (MCV-positive), Cell Titer Glo.
The mark [8] stands for this setting: MS-1 (MCV-positive), Cell Titer Glo, read-out: EC50 concentrations for MCC cell lines, MS-1.
Where [9] appears, read: UISO (MCV-negative), Cell Titer Glo.
Setting [10] is: WaGa (MCV-positive), Cell Titer Glo.
The mark [11] stands for this setting: Homo sapiens, MKL-1, read-out: EC50 concentrations for MCC cell lines, MKL-1.
Where [12] appears, read: Homo sapiens, MS-1, read-out: EC50 concentrations for MCC cell lines, MS-1.

The record followed here is patent publication US9662329B2, “Use of survivin antagonists in polyomavirus-related disease” (University of Pittsburgh—Of the Commonwealth System of …, priority 2012, dated 2017).

Counter-ions that a name gives are not always drawn. Like-named read-outs stand apart in the source and are kept apart here.

Text for MKL-1 cells: A total of 1,360 compounds were used in the initial screening survey: 1,280 compounds from LOPAC1280 library (Sigma Aldrich, accessed through University of Pittsburgh Drug Discovery Institute), 89 compounds from NCI's Approved Oncology Drug Set II (from The NCI/DTP Open Chemical Repository, http://dtp.cancer.gov), 6 LT ATPase inhibitors (MAL2-11B, MAL3-101, MAL2-51, DMT3084, bithionol and hexachlorophene (Wright et al., Inhibition of Simian Virus 40 replication by targeting the molecular chaperone function and ATPase activity of T antigen. Virus Res 141, 71 (April, 2009); Seguin et al., High-Throughput Screening Identifies a Bisphenol Inhibitor of SV40 Large T Antigen ATPase Activity. […] NCI Approved Oncology Drug Set II, SV40 LT ATPase inhibitors and MDM2 inhibitors were reconstituted as recommended by supplier. […] Reconstituted compounds were diluted in cell culture media to obtain a 100× stock concentration prior to addition to cells. Doxorubicin (positive control) was obtained from Sigma-Aldrich and DMSO (negative control) was obtained from Fisher Bioreagents.
MKL-1 cells were seeded at a density of 6000 cells in 50 μl of medium per well (120 cells/μl) in opaque polypropylene 384-well microplates (#781080, Greiner Bio-One, Germany). Cells were incubated at 37° C. in humidified air containing 5% CO2 for 24 hours. Thereafter, 25 μl of medium containing 3× drug per well was added to the plates, which were incubated for an additional 48 hours. Cell viability was measured using Cell Titer Glo (Promega) following manufacturer's instructions.
The LOPAC1280 library was screened at a final concentration of 10 μM for each compound and the NCI library was screened at a final concentration of 1 μM for each compound.
Cell Titer Glo assays were performed in duplicate using 384 well plates, each containing 24 wells with 1% DMSO (negative control) and 32 wells with 200 μM doxorubicin (positive control). Screening results were evaluated on the basis of percentage cell survival normalized to the DMSO control (100%). Positive candidates were identified using a cut-off value of <10% cell survival.

Regarding `COc1cc(NS(C)(=O)=O)ccc1Nc1c2ccccc2nc2ccccc12` [Amsacrine hydrochloride], the EC50 with MKL-1 (setting [1]) is 0.11 µM; in the test on MKL-2 (setting [2]), 3 µM; in the test with MS-1 (setting [3]), 7.5 µM; with UISO (setting [4]) it was 2.6 µM; in the test with WaGa (setting [5]), 0.25 µM.

`CC(C)(C)c1ccc(S(=O)(=O)/C=C/C#N)cc1` [Bay 11-7085]: the EC50 was 1.4 µM in the test on MKL-1 (setting [6]); 1.7 µM in the test with MKL-2 (setting [7]); 2.7 µM in the test with MS-1 (setting [8]); 4.5 µM in the test with UISO (setting [9]); 1.2 µM in the test with WaGa (setting [10]).

As to `Clc1ccc(C(c2ccc(Cl)cc2)n2cc[n+](CC(OCc3ccc(Cl)cc3Cl)c3ccc(Cl)cc3Cl)c2)cc1` (centres unmarked) [Calmidazolium chloride], the EC50 in the test on MKL-1 (setting [1]) worked out at 2.2 µM; with MKL-2 (setting [2]), 1.7 µM; with MS-1 (setting [3]) it was 2.1 µM; in the test on UISO (setting [4]), 2 µM; with WaGa (setting [5]), 2.1 µM.

Consider `COc1ccc2c(c[n+](C)c3c4cc5c(cc4ccc23)OCO5)c1OC` [Chelerythrine chloride], for which the EC50 with MKL-1 (setting [1]) was 0.6 µM; in the test with MKL-2 (setting [2]), 0.65 µM; in the test with MS-1 (setting [3]) it was 0.52 µM; in the test with UISO (setting [4]) it was 3.7 µM; in the test with WaGa (setting [5]) it was 0.7 µM.

`COc1cccc2c1C(=O)c1c(O)c3c(c(O)c1C2=O)C[C@@](O)(C(C)=O)C[C@@H]3O[C@H]1C[C@H](N)[C@H](O)[C@H](C)O1` [Daunorubicin]: the EC50 with MKL-1 (setting [11]) came out at 0.015 µM; in the test on MKL-2 (Homo sapiens) it was 0.086 µM; in the test with MS-1 (setting [12]), 0.15 µM; with UISO (Homo sapiens), 1.4 µM; in the test on WaGa (Homo sapiens), 0.018 µM.

As for `COc1cccc2c1C(=O)c1c(O)c3c(c(O)c1C2=O)C[C@@](O)(C(=O)CO)C[C@@H]3O[C@H]1C[C@H](N)[C@H](O)[C@H](C)O1` [Doxorubicin], the EC50 in the test with MKL-1 (setting [1]) is 0.21 µM; in the test with MKL-2 (setting [2]), 0.022 µM; in the test on MS-1 (setting [3]) it was 0.37 µM; in the test on UISO (setting [4]), 0.25 µM; with WaGa (setting [5]) it was 0.022 µM.

Turning to `Cc1c2ccncc2c(C)c2c1[nH]c1ccccc12` [Ellipticine], the EC50 in the test on MKL-1 (setting [1]) is 3.2 µM; with MKL-2 (setting [2]) it was 6.5 µM; in the test with MS-1 (setting [3]) it was 6.9 µM; in the test on UISO (setting [4]), 1.1 µM; in the test with WaGa (setting [5]), 3 µM.

Turning to `NC(=O)CI` [Iodoacetamide], the EC50 in the test with MKL-1 (setting [11]) came to 0.29 µM; with MKL-2 (Homo sapiens), 0.3 µM; in the test on MS-1 (setting [12]), 0.64 µM; in the test on UISO (Homo sapiens), 2.5 µM; with WaGa (Homo sapiens), 0.37 µM.

In the case of `O=C1c2c(O)ccc(O)c2C(=O)c2c(NCCNCCO)ccc(NCCNCCO)c21` [Mitoxantrone], the EC50 is 0.006 µM in the test on MKL-1 (setting [1]); 1.3 µM in the test on MKL-2 (setting [2]); 1.6 µM in the test with MS-1 (setting [3]); 0.97 µM with UISO (setting [4]); 0.014 µM with WaGa (setting [5]).

In the case of `O=C1C(SCCO)=C(SCCO)C(=O)c2ccccc21` [NSC 95397], the EC50 was 1.2 µM with MKL-1 (setting [6]); 1.5 µM in the test on MKL-2 (setting [7]); 1.8 µM in the test with MS-1 (setting [8]); 2.8 µM in the test on UISO (setting [9]); 0.73 µM with WaGa (setting [10]).

Consider `CCN(CC)CCCC(C)Nc1c2ccc(Cl)cc2nc2ccc(OC)cc12` (centres unmarked) [Quinacrine dihydrochloride], for which the EC50 with MKL-1 (setting [11]) was determined as 5.1 µM; in the test with MKL-2 (Homo sapiens) it was 4.6 µM; in the test with MS-1 (setting [12]) it was 4.9 µM; in the test with UISO (Homo sapiens) it was 7.1 µM; in the test with WaGa (Homo sapiens), 5.2 µM.

On to `C[n+]1cc2c3c(ccc2c2ccc4cc5c(cc4c21)OCO5)OCO3` [Sanguinarine chloride], for which the EC50 with MKL-1 (setting [11]) came to 5.3 µM; in the test with MKL-2 (Homo sapiens), 8.4 µM; in the test on MS-1 (setting [12]), 4.9 µM; in the test with UISO (Homo sapiens), 6.5 µM; with WaGa (Homo sapiens) it was 2.5 µM.

With `COc1cc([C@@H]2c3cc4c(cc3[C@@H](O[C@@H]3O[C@@H]5CO[C@@H](c6cccs6)O[C@H]5[C@H](O)[C@H]3O)[C@H]3COC(=O)[C@H]23)OCO4)cc(OC)c1O` [Teniposide], the EC50 turned out to be 0.01 µM in the test with MKL-1 (setting [1]); 2.8 µM with MKL-2 (setting [2]); 3 µM with MS-1 (setting [3]); 7.3 µM with UISO (setting [4]); 0.026 µM in the test on WaGa (setting [5]).

With `CCN(CC)C(=S)SSC(=S)N(CC)CC` [Tetraethylthiuram disulfide], the EC50 was found to be 0.49 µM in the test with MKL-1 (setting [1]); 0.19 µM in the test with MKL-2 (setting [2]); 6.3 µM in the test with MS-1 (setting [3]); 13 µM in the test on UISO (setting [4]); 1.1 µM in the test with WaGa (setting [5]).

Turning to `CC[C@@]1(O)C(=O)OCc2c1cc1n(c2=O)Cc2cc3c(CN(C)C)c(O)ccc3nc2-1` [Topotecan], the EC50 in the test with MKL-1 (setting [1]) amounted to 0.028 µM; in the test with MKL-2 (setting [2]), 0.43 µM; with MS-1 (setting [3]), 0.62 µM; in the test with UISO (setting [4]), 0.17 µM; in the test with WaGa (setting [5]), 0.015 µM.

As for `CCC(=O)N1CCN(c2ccc(-n3c(=O)ccc4cnc5ccc(-c6cnc7ccccc7c6)cc5c43)cc2C(F)(F)F)CC1` [Torin1], in the test with MKL-1 cells, the “activity in screen (>90% inhibition of MKL-1 cell growth)” value was “not active”.

Regarding `CCCCC(=O)OCC(=O)[C@]1(O)Cc2c(O)c3c(c(O)c2[C@@H](O[C@H]2C[C@H](NC(=O)C(F)(F)F)[C@H](O)[C@H](C)O2)C1)C(=O)c1c(OC)cccc1C3=O` [Valrubicin], the EC50 is 0.23 µM in the test with MKL-1 (setting [1]); 2.8 µM in the test on MKL-2 (setting [2]); 9.9 µM with MS-1 (setting [3]); 4 µM in the test on UISO (setting [4]); 0.32 µM in the test on WaGa (setting [5]).

For `Nc1nc2c(ncn2COCCO)c(=O)[nH]1` [acyclovir], in the test with MKL-1 cells, the “activity in screen (>90% inhibition of MKL-1 cell growth)” value is recorded as “not active”.

Turning to `CO[C@H]1C[C@@H]2CC[C@@H](C)[C@@](O)(O2)C(=O)C(=O)N2CCCC[C@H]2C(=O)O[C@H]([C@H](C)C[C@@H]2CC[C@@H](OCCO)[C@H](OC)C2)CC(=O)[C@H](C)/C=C(\C)[C@@H](O)[C@@H](OC)C(=O)[C@H](C)C[C@H](C)/C=C/C=C/C=C/1C` [everolimus], the “activity in screen (>90% inhibition of MKL-1 cell growth)” value in the test on MKL-1 cells is on record as “not active”.

`COc1ccc(C2=N[C@@H](c3ccc(Cl)cc3)[C@@H](c3ccc(Cl)cc3)N2C(=O)N2CCNC(=O)C2)c(OC(C)C)c1` [nutlin-3]: in the test on MKL-1 cells, the “activity in screen (>90% inhibition of MKL-1 cell growth)” value is reported as “not active”.

Regarding `CO[C@H]1C[C@@H]2CC[C@@H](C)[C@@](O)(O2)C(=O)C(=O)N2CCCC[C@H]2C(=O)O[C@H]([C@H](C)C[C@@H]2CC[C@@H](O)[C@H](OC)C2)CC(=O)[C@H](C)/C=C(\C)[C@@H](O)[C@@H](OC)C(=O)[C@H](C)C[C@H](C)/C=C/C=C/C=C/1C` [rapamycin], in the test with MKL-1 cells, the “activity in screen (>90% inhibition of MKL-1 cell growth)” value is “not active”.

With `NC(=O)c1ncn([C@@H]2O[C@H](CO)[C@@H](O)[C@H]2O)n1` [ribavirin], in the test with MKL-1 cells, the “activity in screen (>90% inhibition of MKL-1 cell growth)” value was “not active”.
